According to patent US10428083B2, “Heterocyclylmethyl-thienouracile as antagonists of the adenosine-A2B-receptor” (BAYER PHARMA AKTIENGESELLSCHAFT, priority 2015, dated 2019):

Biological target: human adenosine A2b receptor (Homo sapiens (Human), UniProt P29275)
Assay: Cellular in vitro reporter gene test for A2b receptor activity (CHO-K1, CRE-luciferase, NECA stimulation)
Format: cell-based
Conditions: recombinant CHO-K1 cell line, CRE-luciferase reporter, antagonism of EC50 concentration of NECA; in some cases means of several determinations, rounded to two significant figures; read-out: A2b receptor IC50
In short: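 CHO-K1 cells with CRE-driven luciferase; antagonists co-incubated with NECA at its EC50, determined in a pre-experiment on each test day. Luciferase read by luminescence 3 h after NECA addition.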

Chain of human adenosine A2b receptor (P29275 whole entry): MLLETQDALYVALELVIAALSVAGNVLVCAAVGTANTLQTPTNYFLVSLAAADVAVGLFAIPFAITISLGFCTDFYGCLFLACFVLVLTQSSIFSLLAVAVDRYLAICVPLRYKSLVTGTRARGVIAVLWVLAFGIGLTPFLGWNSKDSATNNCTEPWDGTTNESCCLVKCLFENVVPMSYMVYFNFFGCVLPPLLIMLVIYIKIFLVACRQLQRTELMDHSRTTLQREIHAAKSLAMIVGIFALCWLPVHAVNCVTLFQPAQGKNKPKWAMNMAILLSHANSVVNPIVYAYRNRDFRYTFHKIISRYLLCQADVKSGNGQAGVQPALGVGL

SMILES	IC50
Cc1c(CN2CCNC2=O)sc2c1c(=O)n(CC(F)F)c(=O)n2CCCF [Example 95, 3-(2,2-Difluoroethyl)-1-(3-fluoropropyl)-5-methyl-6-[(2-oxoimidazolidin-1-yl)methyl]thieno[2,3-d]pyrimidine-2,4(1H,3H)-dione]	11 nM
COCCn1c(=O)n(CC(F)F)c(=O)c2c(C)c(CN3CCNC3=O)sc21 [Example 96, 3-(2,2-Difluoroethyl)-1-(2-methoxyethyl)-5-methyl-6-[(2-oxoimidazolidin-1-yl)methyl]thieno[2,3-d]pyrimidine-2,4(1H,3H)-dione]	9.4 nM
COCCn1c(=O)n(CCF)c(=O)c2c(C)c(CN3CCNC3=O)sc21 [Example 97, 3-(2-Fluoroethyl)-1-(2-methoxyethyl)-5-methyl-6-[(2-oxoimidazolidin-1-yl)methyl]thieno[2,3-d]pyrimidine-2,4(1H,3H)-dione]	18 nM
COCCn1c(=O)n(CCC(F)(F)F)c(=O)c2c(C)c(CN3CCNC3=O)sc21 [Example 98, 1-(2-Methoxyethyl)-5-methyl-6-[(2-oxoimidazolidin-1-yl)methyl]-3-(3,3,3-trifluoropropyl)thieno[2,3-d]pyrimidine-2,4(1H,3H)-dione]	130 nM
CCn1c(=O)c2c(C(F)F)c(CN3CCNC3=O)sc2n(CCC(F)(F)F)c1=O [Example 100, 5-(Difluoromethyl)-3-ethyl-6-[(2-oxoimidazolidin-1-yl)methyl]-1-(3,3,3-trifluoropropyl)thieno[2,3-d]pyrimidine-2,4(1H,3H)-dione]	6.8 nM
CCn1c(=O)c2c(C(F)F)c(CN3CCNC3=O)sc2n(CCOC)c1=O [Example 101, 5-(Difluoromethyl)-3-ethyl-1-(2-methoxyethyl)-6-[(2-oxoimidazolidin-1-yl)methyl]thieno[2,3-d]pyrimidine-2,4(1H,3H)-dione]	12 nM
CCn1c(=O)c2c(C)c(CN3CCN(C)C3=O)sc2n(CCC(F)(F)F)c1=O [Example 103, 3-Ethyl-5-methyl-6-[(3-methyl-2-oxoimidazolidin-1-yl)methyl]-1-(3,3,3-trifluoropropyl)thieno[2,3-d]pyrimidine-2,4(1H,3H)-dione]	3.5 nM
CCn1c(=O)c2c(C)c(CN3CCN(C(C)=O)C3=O)sc2n(CCOC)c1=O [Example 104, 6-[(3-Acetyl-2-oxoimidazolidin-1-yl)methyl]-3-ethyl-1-(2-methoxyethyl)-5-methylthieno[2,3-d]pyrimidine-2,4(1H,3H)-dione]	120 nM
COCCn1c(=O)n(CCc2ccccc2)c(=O)c2c(C(F)(F)F)c(CN3CCN(C)C3=O)sc21 [Example 105, 1-(2-Methoxyethyl)-6-[(3-methyl-2-oxoimidazolidin-1-yl)methyl]-3-(2-phenylethyl)-5-(trifluoromethyl)thieno[2,3-d]pyrimidine-2,4(1H,3H)-dione]	14 nM
CCn1c(=O)c2c(C)c(CN3C(=O)CNC3=O)sc2n(CCOC(F)(F)F)c1=O [Example 106, 6-[(2,5-Dioxoimidazolidin-1-yl)methyl]-3-ethyl-5-methyl-1-[2-(trifluoromethoxy)ethyl]thieno[2,3-d]pyrimidine-2,4(1H,3H)-dione]	9.2 nM
CCn1c(=O)c2c(C)c(CN3CCCNC3=O)sc2n(CCC(F)(F)F)c1=O [Example 107, 3-Ethyl-5-methyl-6-[(2-oxotetrahydropyrimidin-1(2H)-yl)methyl]-1-(3,3,3-trifluoropropyl)thieno[2,3-d]pyrimidine-2,4(1H,3H)-dione]	11 nM
CCn1c(=O)c2c(C)c(CN3CCCN(C)C3=O)sc2n(CCC(F)(F)F)c1=O [Example 108, 3-Ethyl-5-methyl-6-[(3-methyl-2-oxotetrahydropyrimidin-1(2H)-yl)methyl]-1-(3,3,3-trifluoropropyl)thieno[2,3-d]pyrimidine-2,4(1H,3H)-dione]	3.3 nM
C=CCn1cnn(Cc2sc3c(c2C)c(=O)n(CC)c(=O)n3CCC(F)(F)F)c1=O [Example 110, 6-[(4-Allyl-5-oxo-4,5-dihydro-H-1,2,4-triazol-1-yl)methyl]-3-ethyl-5-methyl-1-(3,3,3-trifluoropropyl)thieno[2,3-d]pyrimidine-2,4(1H,3H)-dione]	79 nM
C=CCn1cnn(Cc2sc3c(c2C)c(=O)n(CC)c(=O)n3CCOC(F)(F)F)c1=O [Example 111, 6-[(4-Allyl-5-oxo-4,5-dihydro-1H-1,2,4-triazol-1-yl)methyl]-3-ethyl-5-methyl-1-[2-(trifluoromethoxy)ethyl]thieno[2,3-d]pyrimidine-2,4(1H,3H)-dione]	21 nM
C=CCn1cnn(Cc2sc3c(c2C)c(=O)n(CC)c(=O)n3CCOC)c1=O [Example 112, 6-[(4-Allyl-5-oxo-4,5-dihydro-1H-1,2,4-triazol-1-yl)methyl]-3-ethyl-1-(2-methoxyethyl)-5-methylthieno[2,3-d]pyrimidine-2,4(1H,3H)-dione]	500 nM
CCn1c(=O)c2c(C)c(Cn3nc[nH]c3=O)sc2n(CCOC)c1=O [Example 114, 3-Ethyl-1-(2-methoxyethyl)-5-methyl-6-[(5-oxo-4,5-dihydro-1H-1,2,4-triazol-1-yl)methyl]thieno[2,3-d]pyrimidine-2,4(1H,3H)-dione]	39 nM

SMILES	IC50
CCn1c(=O)c2c(C)c(CN3CCNC3=NC#N)sc2n(CCOC)c1=O [Example 117, [1-{[3-Ethyl-1-(2-methoxyethyl)-5-methyl-2,4-dioxo-1,2,3,4-tetrahydrothieno[2,3-d]pyrimidin-6-yl]methyl}imidazolidin-2-ylidene]cyanamide]	5.2 nM
CCn1c(=O)c2c(C)c(CN3CCNC(=O)C3=O)sc2n(CCOC)c1=O [Example 120, 6-[(2,3-Dioxopiperazin-1-yl)methyl]-3-ethyl-1-(2-methoxyethyl)-5-methylthieno[2,3-d]pyrimidine-2,4(1H,3H)-dione]	12 nM
Cc1c(CN2CCNC(=O)C2=O)sc2c1c(=O)n(CC(C)C)c(=O)n2CCCF [Example 121, 6-[(2,3-Dioxopiperazin-1-yl)methyl]-1-(3-fluoropropyl)-3-isobutyl-5-methylthieno[2,3-d]pyrimidine-2,4(1H,3H)-dione]	20 nM
Cc1c(CN2CCNC(=O)C2=O)sc2c1c(=O)n(CC(F)(F)F)c(=O)n2CCC(F)(F)F [Example 122, 6-[(2,3-Dioxopiperazin-1-yl)methyl]-5-methyl-3-(2,2,2-trifluoroethyl)-1-(3,3,3-trifluoropropyl)thieno[2,3-d]pyrimidine-2,4(1H,3H)-dione]	3.9 nM
Cc1c(CN2CCNC(=O)C2=O)sc2c1c(=O)n(CC(F)(F)F)c(=O)n2C [Example 124, 6-[(2,3-Dioxopiperazin-1-yl)methyl]-1,5-dimethyl-3-(2,2,2-trifluoroethyl)thieno[2,3-d]pyrimidine-2,4(1H,3H)-dione]	60 nM
Cc1c(CN2CCNC(=O)C2=O)sc2c1c(=O)n(CC(F)F)c(=O)n2CCC(F)(F)F [Example 125, 3-(2,2-Difluoroethyl)-6-[(2,3-dioxopiperazin-1-yl)methyl]-5-methyl-1-(3,3,3-trifluoropropyl)thieno[2,3-d]pyrimidine-2,4(1H,3H)-dione]	8.8 nM
CCn1c(=O)c2c(C)c(CN3CC[C@@H](O)C3=O)sc2n(CCC(F)(F)F)c1=O [Example 126, 3-Ethyl-6-{[(3R)-3-hydroxy-2-oxopyrrolidin-1-yl]methyl}-5-methyl-1-(3,3,3-trifluoropropyl)thieno[2,3-d]pyrimidine-2,4(1H,3H)-dione]	3.9 nM
CCn1c(=O)c2c(C)c(Cn3[nH]ccc3=O)sc2n(CCC(F)(F)F)c1=O [Example 127, 3-Ethyl-5-methyl-6-[(5-oxo-2,5-dihydro-1H-pyrazol-1-yl)methyl]-1-(3,3,3-trifluoropropyl)thieno[2,3-d]pyrimidine-2,4(1H,3H)-dione]	5.6 nM
CCn1c(=O)c2c(C)c(Cn3[nH]ccc3=O)sc2n(CCOC)c1=O [Example 128, 3-Ethyl-1-(2-methoxyethyl)-5-methyl-6-[(5-oxo-2,5-dihydro-1H-pyrazol-1-yl)methyl]thieno[2,3-d]pyrimidine-2,4(1H,3H)-dione]	4.7 nM
Cc1c(Cn2[nH]ccc2=O)sc2c1c(=O)n(C(C)C)c(=O)n2CCC(F)(F)F [Example 132, 3-Isopropyl-5-methyl-6-[(5-oxo-2,5-dihydro-1H-pyrazol-1-yl)methyl]-1-(3,3,3-trifluoropropyl)thieno[2,3-d]pyrimidine-2,4(1H,3H)-dione]	20 nM
COCCn1c(=O)n(C(C)C)c(=O)c2c(C)c(Cn3[nH]ccc3=O)sc21 [Example 133, 3-Isopropyl-1-(2-methoxyethyl)-5-methyl-6-[(5-oxo-2,5-dihydro-1H-pyrazol-1-yl)methyl]thieno[2,3-d]pyrimidine-2,4(1H,3H)-dione]	26 nM
CCn1c(=O)c2c(C)c(CN3CCNC3=S)sc2n(CC(F)F)c1=O [Example 137, 1-(2,2-Difluoroethyl)-3-ethyl-5-methyl-6-[(2-thioxoimidazolidin-1-yl)methyl]thieno[2,3-d]pyrimidine-2,4(1H,3H)-dione]	10 nM
CCn1c(=O)c2c(C)c(CN3CCNC3=S)sc2n(CCOC2CC2)c1=O [Example 138, 1-[2-(Cyclopropyloxy)ethyl]-3-ethyl-5-methyl-6-[(2-thioxoimidazolidin-1-yl)methyl]thieno[2,3-d]pyrimidine-2,4(1H,3H)-dione]	12 nM
Cc1c(CN2CCNC2=S)sc2c1c(=O)n(CC(C)C)c(=O)n2CC(F)F [Example 143]	3 nM
Cc1c(CN2CCNC2=S)sc2c1c(=O)n(CC(C)C)c(=O)n2CCCF [Example 144, 1-(3-Fluoropropyl)-3-isobutyl-5-methyl-6-[(2-thioxoimidazolidin-1-yl)methyl]thieno[2,3-d]pyrimidine-2,4(1H,3H)-dione]	1.5 nM
CCOCCn1c(=O)n(CC(C)C)c(=O)c2c(C)c(CN3CCNC3=S)sc21 [Example 145, 1-(2-Ethoxyetyl)-3-isobutyl-5-methyl-6-[(2-thioxoimidazolidin-1-yl)methyl]thieno[2,3-d]pyrimidine-2,4(1H,3H)-dione]	14 nM
